Measurements published in the NIST ThermoML archive (doi:10.1021/acs.jced.9b00752).

Assay: mn = molality of the nth substance listed, in mol/kg
Conditions: 100 kPa, Liquid, Vibrating tube method

N[C@@H](Cc1c[nH]cn1)C(=O)O [L-histidine] + O
mass density [kg/m3]
Conditions	273.65 K	274.15 K	274.65 K	275.15 K	275.65 K	276.15 K	276.65 K	277.15 K	277.65 K	278.15 K
m1 = 0.0078	1000.36	1000.39	1000.41	1000.43	1000.44	1000.45	1000.46	1000.45	1000.45	1000.44
m1 = 0.0176	1000.94	1000.96	1000.99	1001	1001.01	1001.02	1001.02	1001.02	1001.02	1001.01
m1 = 0.0269	1001.55	1001.57	1001.59	1001.61	1001.62	1001.62	1001.62	1001.62	1001.62	1001.61
m1 = 0.048	1002.8	1002.82	1002.83	1002.85	1002.86	1002.86	1002.86	1002.85	1002.85	1002.84
m1 = 0.0636	1003.83	1003.85	1003.87	1003.88	1003.88	1003.88	1003.88	1003.88	1003.87	1003.85
m1 = 0.0856	1005.09	1005.11	1005.12	1005.12	1005.13	1005.13	1005.12	1005.11	1005.1	1005.09
m1 = 0.0982	1005.86	1005.87	1005.88	1005.89	1005.89	1005.89	1005.88	1005.87	1005.86	1005.85
m1 = 0.115	1006.76	1006.77	1006.77	1006.78	1006.78	1006.78	1006.77	1006.76	1006.75	1006.73
m1 = 0.1268	1007.55	1007.57	1007.57	1007.57	1007.57	1007.57	1007.56	1007.54	1007.53	1007.51
m1 = 0.138	1008.24	1008.25	1008.25	1008.25	1008.25	1008.25	1008.23	1008.22	1008.2	1008.18
m1 = 0.1586	1009.57	1009.58	1009.58	1009.58	1009.58	1009.57	1009.55	1009.54	1009.52	1009.5
